Laboratory results: patent publication US10336691B2, “Pesticidally active oxime and hydrazone derivatives” (Syngenta Participations AG, priority 2015, dated 2019)
Read-outs that look alike come from different tables or passages of the source.

Assays:
Diabrotica balteata = Diabrotica balteata (corn root worm) maize sprout spray test, L2 larvae; format: in vivo; details: 96 h, read-out: effect in at least one of the two categories (mortality or growth inhibition); for percent effect (mortality or growth inhibition) at 200 ppm: application rate of 200 ppm, 4 days after infestation, in comparison to untreated samples
Description: Diabrotica balteata (Corn Root Worm)
Maize sprouts, placed on an agar layer in 24-well microtiter plates were treated with aqueous test solutions prepared from 10,000 ppm DMSO stock solutions by spraying. After drying, the plates were infested with L2 larvae (6 to 10 per well). The samples were assessed for mortality and growth inhibition in comparison to untreated samples 4 days after infestation.

Plutella xylostella = Plutella xylostella (diamond back moth) artificial diet test, L2 larvae; format: in vivo; details: 120 h, read-out: effect in at least one of the two categories (mortality or growth inhibition); for percent effect (mortality or growth inhibition) at 200 ppm: application rate of 200 ppm, 5 days after infestation, in comparison to untreated samples
Description: Plutella xylostella (Diamond Back Moth)
24-well microtiter plates with artificial diet were treated with aqueous test solutions prepared from 10,000 ppm DMSO stock solutions by pipetting. After drying, the plates were infested with L2 larvae (10 to 15 per well). The samples were assessed for mortality and growth inhibition in comparison to untreated samples 5 days after infestation.

Spodoptera littoralis = Spodoptera littoralis (Egyptian cotton leaf worm) cotton leaf disc spray test, L1 larvae; format: in vivo; details: foliar, 72 h, read-out: control (at least one of mortality, anti-feedant effect, and growth inhibition)
Description: Spodoptera littoralis (Egyptian Cotton Leaf Worm)
Cotton leaf discs were placed on agar in 24-well microtiter plates and sprayed with aqueous test solutions prepared from 10,000 ppm DMSO stock solutions. After drying, the leaf discs were infested with five L1 larvae. The samples were assessed for mortality, anti-feedant effect, and growth inhibition in comparison to untreated samples 3 days after infestation. Control of Spodoptera littoralis by a test sample is when at least one of mortality, anti-feedant effect, and growth inhibition is higher than the untreated sample.

[1] = application rate of 200 ppm, 3 days after infestation, in comparison to untreated samples

melting point [°C] | Structure (SMILES) | percent effect (mortality or growth inhibition) at 200 ppm (Diabrotica balteata) [%] | percent effect (mortality or growth inhibition) at 200 ppm (Plutella xylostella) [%] | mortality at 200 ppm (Spodoptera littoralis; [1]) [%] | percent control (mortality or growth inhibition) at 200 ppm (Diabrotica balteata) [%] | percent control (mortality or growth inhibition) at 200 ppm (Plutella xylostella) [%] | mortality at 200 ppm (Spodoptera littoralis) [%]
215 to 224 | C/C(=N\Nc1ccc(/C=N/NC(=O)Nc2c(C)cccc2C)cc1)c1ccccc1OC(F)(F)F |  |  |  |  |  | 
 | Cc1cccc(C)c1NC(=O)N/N=C/c1ccc(O/N=C2\CCc3cc(OC(F)(F)F)ccc32)cc1 [Compound 1, 1-(2,6-dimethylphenyl)-3-[[4-[[5-(trifluoromethoxy)indan-1-ylidene]amino]oxyphenyl]methylene-amino]urea] | ≥ 80 | ≥ 80 | ≥ 80 |  |  | 
 | C/C(=N\Oc1ccc(/C=N/OC(=O)Nc2c(C)cccc2C)cc1)c1ccc(OC(F)(F)F)cc1 [Compound 2, [[4-[1-[4-(trifluoromethoxy)phenyl]ethylidene-amino]oxyphenyl]methyleneamino] N-(2,6-dimethylphenyl) carbamate] |  |  |  | ≥ 80 | ≥ 80 | ≥ 80
 | C/C(=N\Nc1ccc(/C=N/NC(=S)Nc2c(C)cccc2C)cc1)c1ccc(OC(F)(F)F)cc1 [Compound 3, 1-(2,6-dimethylphenyl)-3-[[4-[2-[1-[4-(trifluoromethoxy)phenyl]ethylidene] hydrazino]phenyl]methyleneamino] thiourea] | ≥ 80 | ≥ 80 | ≥ 80 |  |  | 
 | CC(C)c1ccccc1NC(=O)N/N=C/c1ccc(O/N=C2\CCc3cc(OC(F)(F)F)ccc32)cc1 [Compound 4, 1-(2-isopropylphenyl)-3-[[4-[[5-(trifluoromethoxy)indan-1-ylidene]amino]oxyphenyl]methylene-amino]urea] | ≥ 80 | ≥ 80 | ≥ 80 |  |  | 
 | CC(C)c1ccccc1NC(=S)N/N=C/c1ccc(O/N=C2\CCc3cc(OC(F)(F)F)ccc32)cc1 [Compound 5, 1-(2-isopropylphenyl)-3-[[4-[[5-(trifluoromethoxy)indan-1-ylidene]amino]oxyphenyl]methylene-amino]thiourea] | ≥ 80 | ≥ 80 | ≥ 80 |  |  | 
 | C/C(=N\Oc1ccc(/C=N/NC(=O)Nc2c(C)cccc2C)cc1)c1ccc(OC(F)(F)F)cc1 [Compound 7, 1-(2,6-dimethylphenyl)-3-[[4-[1-[4-(trifluoromethoxy)phenyl]ethylidene-amino]oxyphenyl]methylene-amino]urea] | ≥ 80 | ≥ 80 | ≥ 80 |  |  | 
 | Cc1cccc(C)c1NC(=S)N/N=C/c1ccc(O/N=C2\CCc3cc(OC(F)(F)F)ccc32)cc1 [Compound 9, 1-(2,6-dimethylphenyl)-3-[[4-[[5-(trifluoromethoxy)indan-1-ylidene]amino]oxyphenyl]methylene-amino]thiourea] | ≥ 80 | ≥ 80 | ≥ 80 |  |  | 
 | C/C(=N\Oc1ccc(/C=N/NC(=S)Nc2c(C)cccc2C)cc1)c1ccc(OC(F)(F)F)cc1 [Compound 10, 1-(2,6-dimethylphenyl)-3-[[4-[1-[4-(trifluoromethoxy)phenyl]ethylidene-amino]oxyphenyl]methylene-amino]thiourea] | ≥ 80 | ≥ 80 | ≥ 80 |  |  | 
 | Cc1cccc(C)c1NC(=S)N/N=C/c1ccc(N/N=C2\CCc3cc(OC(F)(F)F)ccc32)cc1 [Compound 11, 1-(2,6-dimethylphenyl)-3-[[4-[2-[5-(trifluoromethoxy)indan-1-ylidene]hydrazino]phenyl]methylene-amino]thiourea] | ≥ 80 | ≥ 80 | ≥ 80 |  |  | 
 | C/C(=N\Nc1ccc(/C=N/NC(=O)Nc2ccccc2C(C)C)cc1)c1ccc(C(F)(F)F)cc1 [Compound 19, 1-(2-isopropylphenyl)-3-[(E)-[4-[(2E)-2-[1-[4-(trifluoromethyl)phenyl]ethylidene] hydrazino]phenyl]methyleneamino] urea] | ≥ 80 | ≥ 80 |  |  |  | 
 | C/C(=N\Nc1ccc(/C=N/NC(=S)Nc2ccccc2C(C)C)cc1)c1ccc(C(F)(F)F)cc1 [Compound 20, 1-(2-isopropylphenyl)-3-[(E)-[4-[(2E)-2-[1-[4-(trifluoromethyl)phenyl]ethylidene] hydrazino]phenyl]methyleneamino] thiourea] | ≥ 80 | ≥ 80 | ≥ 80 |  |  | 
 | C/C(=N\Nc1ccc(/C=N/NC(=O)Nc2c(C)cccc2C)cc1)c1ccc(C(F)(F)F)cc1 [Compound 21, 1-(2,6-dimethylphenyl)-3-[(E)-[4-[(2E)-2-[1-[4-(trifluoromethyl)phenyl]ethylidene] hydrazino]phenyl]methyleneamino] urea] | ≥ 80 | ≥ 80 | ≥ 80 |  |  | 
 | C/C(=N\Nc1ccc(/C=N/NC(=S)Nc2c(C)cccc2C)cc1)c1ccc(C(F)(F)F)cc1 [Compound 22, 1-(2,6-dimethylphenyl)-3-[(E)-[4-[(2E)-2-[1-[4-(trifluoromethyl)phenyl]ethylidene] hydrazino]phenyl]methyleneamino] thiourea] | ≥ 80 | ≥ 80 | ≥ 80 |  |  | 
 | CC/C(=N\Nc1ccc(/C=N/NC(=O)Nc2ccccc2C(C)C)cc1)c1ccc(C(F)(F)F)cc1 [Compound 25, 1-(2-isopropylphenyl)-3-[(E)-[4-[(2E)-2-[1-[4-(trifluoromethyl)phenyl]propylidene] hydrazino]phenyl]methyleneamino] urea] | ≥ 80 | ≥ 80 |  |  |  | 
 | CC/C(=N\Nc1ccc(/C=N/NC(=S)Nc2ccccc2C(C)C)cc1)c1ccc(C(F)(F)F)cc1 [Compound 26, 1-(2-isopropylphenyl)-3-[(E)-[4-[(2E)-2-[1-[4-(trifluoromethyl)phenyl]propylidene] hydrazino]phenyl]methyleneamino] thiourea] | ≥ 80 | ≥ 80 | ≥ 80 |  |  | 
 | CC/C(=N\Nc1ccc(/C=N/NC(=O)Nc2c(C)cccc2C)cc1)c1ccc(C(F)(F)F)cc1 [Compound 27, 1-(2,6-dimethylphenyl)-3-[(E)-[4-[(2E)-2-[1-[4-(trifluoromethyl)phenyl]propylidene] hydrazino]phenyl]methyleneamino] urea] | ≥ 80 | ≥ 80 | ≥ 80 |  |  | 
 | CC/C(=N\Nc1ccc(/C=N/NC(=S)Nc2c(C)cccc2C)cc1)c1ccc(C(F)(F)F)cc1 [Compound 28, 1-(2,6-dimethylphenyl)-3-[(E)-[4-[(2E)-2-[1-[4-(trifluoromethyl)phenyl]propylidene] hydrazino]phenyl]methyleneamino] thiourea] | ≥ 80 | ≥ 80 | ≥ 80 |  |  | 
 | C/C(=N\Nc1ccc(/C=N/NC(=O)Nc2c(C)cccc2C)cc1)c1ccc(OC(F)F)cc1 [Compound 29, 1-[[4-[2-[1-[4-(difluoromethoxy)phenyl]ethylidene] hydrazino]phenyl]methyleneamino]-3-(2,6-dimethylphenyl)urea] |  | ≥ 80 | ≥ 80 |  |  | 
